Where “and” joins values, the source holds several entries; their conditions need not be identical. Equal entries are not always repeated. After the bases stand the sugars from the 5' end (letter, count) and the backbone: PS all phosphorothioate, else s phosphorothioate and o phosphodiester by linkage. Methylation of C is not given here. e = 2'-O-(2-methoxyethyl) (MOE); k = constrained ethyl (cEt); d = 2'-deoxy (DNA)
Target: IRF4
Details: ASO

Sequence | target mRNA inhibition (MM.1R, 1 µM) [%] | target mRNA inhibition (SK-MEL-28, 4 µM) [%] | further results
CAGTTGTAAATGAGTC (sugars kddddddddddkekek, PS) | 65 |  | target mRNA inhibition (H929, 0.00067 µM): 16%; target mRNA inhibition (H929, 0.002 µM): 25%; target mRNA inhibition (H929, 0.00667 µM): 52%; target mRNA inhibition (H929, 0.02 µM): 68%; target mRNA inhibition (H929, 0.04 µM): 38%; target mRNA inhibition (KMS11, 0.2 µM): 77% and 89%; target mRNA inhibition (MM.1R, 0.074 µM): 18%; target mRNA inhibition (MM.1R, 0.222 µM): 44%; target mRNA inhibition (MM.1R, 0.666 µM): 63%; target mRNA inhibition (MM.1R, 2 µM): 85%
CAGTTGTAAATGAGTC (sugars kkdddddddddekeke, PS) | 72 |  | target mRNA inhibition (H929, 0.00067 µM): 1%; target mRNA inhibition (H929, 0.002 µM): 27%; target mRNA inhibition (H929, 0.00667 µM): 45%; target mRNA inhibition (H929, 0.02 µM): 60%; target mRNA inhibition (H929, 0.04 µM): 34%; target mRNA inhibition (KMS11, 0.2 µM): 83% and 90%; target mRNA inhibition (MM.1R, 0.074 µM): 12%; target mRNA inhibition (MM.1R, 0.222 µM): 39%; target mRNA inhibition (MM.1R, 0.666 µM): 65%; target mRNA inhibition (MM.1R, 2 µM): 88%
CAGTTGTAAATGAGTC (sugars kkdddddddddkdkdk, PS) | 46 |  | 
CAGTTGTAAATGAGTC (sugars kkdddddddddkekek, PS) | 81 |  | target mRNA inhibition (H929, 0.00067 µM): 22%; target mRNA inhibition (H929, 0.002 µM): 41%; target mRNA inhibition (H929, 0.00667 µM): 67%; target mRNA inhibition (H929, 0.02 µM): 74%; target mRNA inhibition (H929, 0.04 µM): 40%; target mRNA inhibition (KMS11, 0.2 µM): 83% and 93%; target mRNA inhibition (MM.1R, 0.074 µM): 28%; target mRNA inhibition (MM.1R, 0.222 µM): 55%; target mRNA inhibition (MM.1R, 0.666 µM): 78%; target mRNA inhibition (MM.1R, 2 µM): 91%
CATAAAAGGTTCCTGT (sugars k3 d10 k3, PS) |  | 9 | 
CATAATCCAGTATCTG (sugars k3 d10 k3, PS) |  | 18 | 
CATAGAGCCAGAGCAG (sugars k3 d10 k3, PS) |  | 60 | 
CATAGCATTATCTACC (sugars k3 d10 k3, PS) |  | 43 | 
CATATACATTGAGGCA (sugars k3 d10 k3, PS) | 20 |  | 
CATCAATCATGATATT (sugars k3 d10 k3, PS) |  | 25 | 
CATCACCGAACACACC (sugars k3 d10 k3, PS) |  | 24 | 
CATCAGAAATCACGAG (sugars k3 d10 k3, PS) |  | 55 | 
CATCCTGCTTCCAGTG (sugars k3 d10 k3, PS) |  | 30 | 
CATCTAATCCACAATC (sugars k3 d10 k3, PS) | -19 |  | 
CATGATAAGGCACTAC (sugars k3 d10 k3, PS) | -6 |  | 
CATGATATTAGAGACT (sugars k3 d10 k3, PS) |  | 56 | 
CATTCACACTGCCGTG (sugars k3 d10 k3, PS) | 6 |  | 
CATTGAGGCATACAGT (sugars k3 d10 k3, PS) |  | 55 | 
CATTGGACCCACGAAG (sugars k3 d10 k3, PS) |  | 28 | 
CATTGGAGGAGGGTTG (sugars k3 d10 k3, PS) |  | -2 | 
CATTTCATTTAATGTC (sugars k3 d10 k3, PS) |  | 33 | 
CCAAAGTTACATCCTA (sugars k3 d10 k3, PS) |  | 39 | 
CCAACTTAAAATCCAC (sugars k3 d10 k3, PS) |  | 9 | 

Sequence | target mRNA inhibition (MM.1R, 1 µM) [%] | target mRNA inhibition (SK-MEL-28, 4 µM) [%] | further results
CCAACTTATAGCACTC (sugars k3 d10 k3, PS) | 14 |  | 
CCAAGAGGTGCGAGTA (sugars k3 d10 k3, PS) |  | 33 | 
CCAAGCCTAGAGGTGC (sugars k3 d10 k3, PS) | 21 |  | 
CCAATTTATGCCATGG (sugars k3 d10 k3, PS) |  | 12 | 
CCACACCAGGAAACCG (sugars k3 d10 k3, PS) |  | 14 | 
CCACAGAGGACTTCGG (sugars k3 d10 k3, PS) |  | 27 | 
CCACAGTGAAGTCGGG (sugars k3 d10 k3, PS) | 6 |  | 
CCACGAAGGGCAGTGC (sugars k3 d10 k3, PS) | 0 |  | 
CCACGAGGCCCCGGAG (sugars k3 d10 k3, PS) | 4 |  | 
CCACGCGCGGAGGACC (sugars k3 d10 k3, PS) |  | 19 | 
CCACGGACGGAGGCGG (sugars k3 d10 k3, PS) | -6 |  | 
CCACTGTTAAAGCAGC (sugars k3 d10 k3, PS) |  | 66 | 
CCAGAACTAATGTCCC (sugars k3 d10 k3, PS) | 6 |  | 
CCAGAAGTACGAGCAC (sugars k3 d10 k3, PS) | -3 |  | 
CCAGGATTCGCCATGG (sugars k3 d10 k3, PS) | 13 |  | 
CCATATTGGAAACCAG (sugars k3 d10 k3, PS) | 10 |  | 
CCCAAATGACTTAGTC (sugars k3 d10 k3, PS) |  | 32 | 
CCCAAGTGAGGTCACC (sugars k3 d10 k3, PS) |  | 20 | 
CCCAATACATATCCAT (sugars k3 d10 k3, PS) |  | 74 | 
CCCAATAGTCTAGCTG (sugars k3 d10 k3, PS) |  | 56 | 
CCCACACCAGCCCGGG (sugars k3 d10 k3, PS) |  | -6 | 
CCCACGCGGGAGGCTC (sugars k3 d10 k3, PS) | -23 |  | 
CCCATGAACACCATGC (sugars k3 d10 k3, PS) |  | 32 | 

Sequence | target mRNA inhibition (MM.1R, 1 µM) [%] | target mRNA inhibition (SK-MEL-28, 4 µM) [%] | further results
CCCATTTAATCTGTCT (sugars k3 d10 k3, PS) |  | 33 | 
CCCCAGCTATGCTCTA (sugars k3 d10 k3, PS) | -30 |  | 
CCCCATATACATTGAG (sugars k3 d10 k3, PS) |  | 37 | 
CCCCATTGCCTGTTAA (sugars k3 d10 k3, PS) |  | 20 | 
CCCCTCTCCAGGTGGC (sugars k3 d10 k3, PS) |  | 13 | 
CCCCTCTCCAGGTGGC (sugars k4 d8 k4, PS) |  | -1 | 
CCCTACTGGGTACATG (sugars k3 d10 k3, PS) |  | 37 | 
CCCTTAGGATAATATA (sugars k3 d10 k3, PS) |  | 49 | 
CCCTTCCCGCTCCGAA (sugars k3 d10 k3, PS) |  | 16 | 
CCGAGATATAAATAGC (sugars k3 d10 k3, PS) | 25 | 61 | target mRNA inhibition (MM.1R, 0.0625 µM): 3%; target mRNA inhibition (MM.1R, 0.074 µM): 7%; target mRNA inhibition (MM.1R, 0.222 µM): 9%; target mRNA inhibition (MM.1R, 0.25 µM): 12%; target mRNA inhibition (MM.1R, 0.666 µM): 22%; target mRNA inhibition (MM.1R, 2 µM): 38%; target mRNA inhibition (MM.1R, 4 µM): 52%
CCGCAAAAGAAACGAG (sugars k3 d10 k3, PS) | -7 |  | 
CCGCAGCTCACCGCGC (sugars k3 d10 k3, PS) |  | 36 | 
CCGCCCGCTCTGCTCT (sugars k3 d10 k3, PS) |  | 54 | 
CCGCTCAACCAGTTCC (sugars k3 d10 k3, PS) | -12 |  | 
CCGGAAGAAGGCACCT (sugars k3 d10 k3, PS) |  | 17 | 
CCGGAGTCAGTGCTGG (sugars k3 d10 k3, PS) |  | -7 | 
CCGGGTTCCTCCACCC (sugars k3 d10 k3, PS) |  | 9 | 
CCGTCCCAGTAGATCC (sugars k3 d10 k3, PS) |  | 25 | 
CCGTTCCTTTTTTAGT (sugars k3 d10 k3, PS) | -3 |  | 
CCTACAAAATGCCTCC (sugars k3 d10 k3, PS) |  | 47 | 
CCTACAAGCAGTCATC (sugars k3 d10 k3, PS) |  | 54 | 

Reference: the OligoGym collection
